Experimental data as given in publication PMC10046961, “High-Throughput Screening Assay for Detecting Drug-Induced Changes in Synchronized Neuronal Oscillations and Potential Seizure Risk Based on Ca^2+ Fluorescence Measurements in Human Induced Pluripotent Stem Cell (hiPSC)-Derived Neuronal 2D and 3D Cultures” (Cells, 2023).
Read-outs that look alike come from different tables or passages of the source.

Legend:
[1] = test system: hiPSC-derived neurons co-cultured with human primary astrocytes in 2D; test: Ca2+ transient oscillation assay (FDSS), 2D co-culture; format: cell-based; conditions: Homo sapiens, 1 h, 60 min
In short: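 hiPSC-derived excitatory neurons (CW50065, Quick-Neuron EX-SeV) co-cultured with human primary astrocytes at 4:1 (10,000:2500 cells per well). Cal-520-loaded cells in HBSS with 2 mM CaCl2 and 10 mM HEPES were pretreated with 0.04% DMSO.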

[2] = ref PharmaPendium, cited from earlier work
[3] = test system: hiPSC-derived neurons co-cultured with human primary astrocytes in 3D; test: Ca2+ transient oscillation assay (FDSS), 3D spheroids; format: cell-based; conditions: 60 min
In short: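 Fura-2 fluorescence was read twice for 20 min each: a baseline 10 min after 0.04% DMSO, and again 60 min after compound addition at nominal final concentration. The 3D co-cultures (1:1 hiPSC neurons from a donor and human astrocytes, 8000 each) matured 5 weeks in BrainPhys medium after a 1-week differentiation.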

[4] = read-out: Area under the curve - 2D Mean
[5] = read-out: Peak amplitude - 2D Mean
[6] = read-out: Peak-to-peak interval - 2D Mean
[7] = Table 1, peak plasma concentration in men, free therapeutic Cmax
[8] = Table 2, highest plasma concentration in humans after the therapeutic dose

NC(=O)N1c2ccccc2C=Cc2ccccc21 [Carbamazepine]
activation at 3.7 µM [1, 4]: 31.5% | activation at 3.7 µM ([1]; read-out: Peak Number—2D Mean): -15.3% | activation at 3.7 µM [1, 5]: 16.5% | activation at 3.7 µM ([1]; read-out: Peak width - 2D Mean): 19% | activation at 3.7 µM [1, 6]: 0.8% | activation at 11.11 µM [1, 4]: 62% | activation at 11.11 µM ([1]; read-out: Peak Number—2D Mean): -17% | activation at 11.11 µM [1, 5]: 8.5% | activation at 11.11 µM ([1]; read-out: Peak width - 2D Mean): 66.5% | activation at 11.11 µM [1, 6]: 45.8% | activation at 33.33 µM [1, 4]: -39.7% | activation at 33.33 µM ([1]; read-out: Peak Number—2D Mean): -76.8% | activation at 33.33 µM [1, 5]: -52% | activation at 33.33 µM ([1]; read-out: Peak width - 2D Mean): -36.7% | activation at 33.33 µM [1, 6]: 45% | activation at 100 µM [1, 4]: -100% | activation at 100 µM ([1]; read-out: Peak Number—2D Mean): -100% | activation at 100 µM [1, 5]: -100% | activation at 100 µM ([1]; read-out: Peak width - 2D Mean): -100% | activation at 100 µM [1, 6]: -100% | Free Cmax [2, 7]: 10 µM | Free Cmax [2, 8]: 10 µM | Area under the curve - 3D Mean ([3]; 3.7 µM): 122.1 % change from baseline | Peak Number—3D Mean ([3]; 3.7 µM): 11.4 % change from baseline | Peak amplitude - 3D Mean ([3]; 3.7 µM): 114.1 % change from baseline | Peak width - 3D Mean ([3]; 3.7 µM): 2.9 % change from baseline | Peak-to-peak interval - 3D Mean ([3]; 3.7 µM): −4.9 % change from baseline | Area under the curve - 3D Mean ([3]; 11.11 µM): 121.7 % change from baseline | Peak Number—3D Mean ([3]; 11.11 µM): 3.9 % change from baseline | Peak amplitude - 3D Mean ([3]; 11.11 µM): 114.1 % change from baseline | Peak width - 3D Mean ([3]; 11.11 µM): 2.8 % change from baseline | Peak-to-peak interval - 3D Mean ([3]; 11.11 µM): 9.5 % change from baseline | Area under the curve - 3D Mean ([3]; 33.33 µM): 107.4 % change from baseline | Peak Number—3D Mean ([3]; 33.33 µM): −19.3 % change from baseline | Peak amplitude - 3D Mean ([3]; 33.33 µM): 93.5 % change from baseline | Peak width - 3D Mean ([3]; 33.33 µM): 5.1 % change from baseline | Peak-to-peak interval - 3D Mean ([3]; 33.33 µM): 33.5 % change from baseline | Area under the curve - 3D Mean ([3]; 100 µM): 173.0 % change from baseline | Peak Number—3D Mean ([3]; 100 µM): −21.5 % change from baseline | Peak amplitude - 3D Mean ([3]; 100 µM): 85.2 % change from baseline | Peak width - 3D Mean ([3]; 100 µM): 43.8 % change from baseline | Peak-to-peak interval - 3D Mean ([3]; 100 µM): 25.1 % change from baseline

CN(C)CCCN1c2ccccc2Sc2ccc(Cl)cc21 [Chlorpromazine]
activation at 0.11 µM [1, 4]: 26.5% | activation at 0.11 µM ([1]; read-out: Peak Number—2D Mean): -27% | activation at 0.11 µM [1, 5]: 8.7% | activation at 0.11 µM ([1]; read-out: Peak width - 2D Mean): 18% | activation at 0.11 µM [1, 6]: 47.2% | activation at 0.33 µM [1, 4]: 36% | activation at 0.33 µM ([1]; read-out: Peak Number—2D Mean): -29.5% | activation at 0.33 µM [1, 5]: 4% | activation at 0.33 µM ([1]; read-out: Peak width - 2D Mean): 38.5% | activation at 0.33 µM [1, 6]: 48% | activation at 1 µM [1, 4]: 10.7% | activation at 1 µM ([1]; read-out: Peak Number—2D Mean): -59.8% | activation at 1 µM [1, 5]: -4.3% | activation at 1 µM ([1]; read-out: Peak width - 2D Mean): 13.8% | activation at 1 µM [1, 6]: 151% | activation at 3 µM [1, 4]: -100% | activation at 3 µM ([1]; read-out: Peak Number—2D Mean): -100% | activation at 3 µM [1, 5]: -100% | activation at 3 µM ([1]; read-out: Peak width - 2D Mean): -100% | activation at 3 µM [1, 6]: -100% | Free Cmax [2, 7]: 0.05 to 0.15 µM | Free Cmax [2, 8]: 0.05 to 0.15 µM | Area under the curve - 3D Mean ([3]; 0.11 µM): 128.5 % change from baseline | Peak Number—3D Mean ([3]; 0.11 µM): 6.5 % change from baseline | Peak amplitude - 3D Mean ([3]; 0.11 µM): 96.7 % change from baseline | Peak width - 3D Mean ([3]; 0.11 µM): 13.3 % change from baseline | Peak-to-peak interval - 3D Mean ([3]; 0.11 µM): 10.0 % change from baseline | Area under the curve - 3D Mean ([3]; 0.33 µM): 129.9 % change from baseline | Peak Number—3D Mean ([3]; 0.33 µM): −2.6 % change from baseline | Peak amplitude - 3D Mean ([3]; 0.33 µM): 100.7 % change from baseline | Peak width - 3D Mean ([3]; 0.33 µM): 13.6 % change from baseline | Peak-to-peak interval - 3D Mean ([3]; 0.33 µM): 12.5 % change from baseline | Area under the curve - 3D Mean ([3]; 1 µM): 132.1 % change from baseline | Peak Number—3D Mean ([3]; 1 µM): 11.5 % change from baseline | Peak amplitude - 3D Mean ([3]; 1 µM): 102.4 % change from baseline | Peak width - 3D Mean ([3]; 1 µM): 13.0 % change from baseline | Peak-to-peak interval - 3D Mean ([3]; 1 µM): −9.6 % change from baseline | Area under the curve - 3D Mean ([3]; 3 µM): 131.9 % change from baseline | Peak Number—3D Mean ([3]; 3 µM): −4.8 % change from baseline | Peak amplitude - 3D Mean ([3]; 3 µM): 98.4 % change from baseline | Peak width - 3D Mean ([3]; 3 µM): 16.6 % change from baseline | Peak-to-peak interval - 3D Mean ([3]; 3 µM): 6.0 % change from baseline
